Measured values reported in US20100048605A1, “SYNERGISTIC EFFECTS OF COMBINATIONS OF N[…] OPIOIDS FOR THE TREATMENT OF PAIN” (University of Kentucky Research Foundation, priority 2006, published 2010).

Tests used:
[1] = system: rodent model of nociceptive pain (tail-flick test); experiment: Tail-flick test after intraperitoneal (IP) administration; assay type: in vivo, Sprague Dawley male rats; settings: rat
Procedure: Sprague Dawley (about 90 days old, 350 g; Harlem, IN) male rats were used. S(−)-nornicotine fumarate (2.57 mg/kg), R(+)-nornicotine fumarate (2.57 mg/kg) and morphine sulfate (3 mg/kg) were dissolved in saline and injected intraperitonealy (IP, 1 ml/kg). Each rat received three treatments: either S(−)-nornicotine alone, morphine alone and S(−)-nornicotine followed by morphine or R(+)-nornicotine alone, morphine alone and R(+)-nornicotine followed by morphine. Injections were made in randomized fashion at 48 hour intervals. The responses to acute thermal stimuli were determined using the tail-flick test [D'Amour F. E., Smith D. L. “A method for determining loss of pain sensation” J Pharmacol Exp Ther (1941), 72:74-79]. Tail-flick latency (TFL) was measured by recording the time from the onset of the heat stimulus to the tail to withdrawal of the tail from the heat source, using a standard tail-flick apparatus (IITC, Life Science). The sensitivity of the instrument was adjusted to provide a baseline about 2 seconds. Cut-off time of 10 seconds was used to avoid tail damage. TFL were determined prior to (twice, about 15 minutes apart) and at […] after administration. Data were normalized for pre-injection baseline. Areas under the curve (AUC0-180min) were calculated for normalized data by trapezoidal rule. […]

[2] = system: rodent model of nociceptive pain (tail-flick test); experiment: Tail-flick test after intrathecal (IT) administration; assay type: in vivo, Sprague Dawley male rats; settings: rat
Procedure: Chronic catheterization of the spinal subarachnoid space was performed in Sprague Dawley male rats (about 90 days old, 350 g; Harlem, IN) according to minor modification of the method described by [Yaksh T and Rudy T. “Chronic catheterization of the spinal subarachnoid space” Physiol Behav (1976) 17:1031-1036]. Briefly, a 21 cm long P-10 polyethylene tubing (volume 10 mcl) which extended 8.5 cm beyond an incision in the atlanto-occipital membrane was inserted and secured to the scull with acrylic cement. The catheter rested in the vicinity of T-12 at the rostral face of the lumbar cord enlargement. The study was initiated 7 days after IT catheterization.
S(−)-nornicotine perchlorate (10 mcg), R(+)-nornicotine perchlorate (10 mcg) and morphine sulfate (0.5 mcg) were dissolved in saline and administered by the intrathecal (IT) route (10 mcl). Groups of rats was treated with S(−)-nornicotine alone and in combination with morphine, […] alone and in combination with morphine, morphine alone, and saline (10 mcl). The responses to acute thermal stimuli were determined using the tail-flick test (a baseline equal to about 2-3 seconds, cut-off time of 10 seconds). […] Data are presented as time courses of the TFL (normalized for baseline) and areas under the curve (AUC0-180min). All data are mean±SEM (n=4-6 rats). Doses refer to salts.

[3] = following peripheral administration of nicotine; cited from earlier work
[4] = humans; cited from earlier work
[5] = following repeated nicotine dosing; cited from earlier work
[6] = compared with nicotine; cited from earlier work

## c1cncc([C@@H]2CCCN2)c1 [S(−)-nornicotine]
[1]; S(−)-nornicotine fumarate 2.57 mg/kg alone
  analgesia of S(−)-nornicotine alone (tail-flick latency, AUC0-180min): did not produce analgesia
[1]; S(−)-nornicotine fumarate 2.57 mg/kg followed by morphine sulfate 3 mg/kg
  effect on the analgesic effect of morphine (tail-flick latency, AUC0-180min): significantly enhanced
[2]; S(−)-nornicotine perchlorate 10 mcg alone
  analgesia of S(−)-nornicotine alone (tail-flick latency, AUC0-180min): did not produce analgesia
[2]; S(−)-nornicotine perchlorate 10 mcg with morphine sulfate 0.5 mcg
  effect on the analgesic effect of morphine (tail-flick latency, AUC0-180min): significantly enhanced

## CN1CCCC1c1cccnc1 (stereo not shown) [nicotine, reference compound]
[3]
  residence in the rat's brain: 52 min

## c1cncc([C@@H]2CCCN2)c1 [nornicotine]
[4]
  plasma half-life: 8 h
[3]
  residence in the rat's brain: 166 min
  residence in the rat's brain relative to nicotine: about 3 times
[5]
  accumulation in the brain compared to nicotine: about 4 fold
[6]
  bioavailability (in words): superior
